From article PMC12435270 (Proceedings of the National Academy of Sciences of the …, 2025) come the findings set out here.

Like-named read-outs stand apart in the source and are kept apart here.

Usually Kd stands for a measure of binding affinity in units of concentration. Higher therefore signals a looser complex.

The target in test [1] is T1, human creatine transporter (hCRT, SLC6A8) (Homo sapiens, UniProt P48029).
T1 sequence (P48029 1-635): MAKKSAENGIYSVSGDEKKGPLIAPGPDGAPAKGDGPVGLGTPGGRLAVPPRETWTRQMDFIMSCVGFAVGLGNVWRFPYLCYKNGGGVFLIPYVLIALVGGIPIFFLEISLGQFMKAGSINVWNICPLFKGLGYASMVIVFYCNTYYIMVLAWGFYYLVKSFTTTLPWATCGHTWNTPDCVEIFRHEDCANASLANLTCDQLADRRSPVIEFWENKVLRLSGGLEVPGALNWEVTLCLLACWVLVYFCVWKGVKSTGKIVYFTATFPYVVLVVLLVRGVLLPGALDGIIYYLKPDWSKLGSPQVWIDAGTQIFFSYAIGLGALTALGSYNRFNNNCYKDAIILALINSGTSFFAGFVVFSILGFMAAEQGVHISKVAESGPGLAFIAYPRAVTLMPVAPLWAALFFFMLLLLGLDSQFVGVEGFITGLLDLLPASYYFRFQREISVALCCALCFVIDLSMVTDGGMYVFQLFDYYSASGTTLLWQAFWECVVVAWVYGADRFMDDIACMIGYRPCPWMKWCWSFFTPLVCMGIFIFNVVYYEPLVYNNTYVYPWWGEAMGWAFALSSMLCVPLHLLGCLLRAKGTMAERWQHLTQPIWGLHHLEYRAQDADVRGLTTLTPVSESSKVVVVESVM
Nature of the test: cryo-EM structure. Type of test: binding.

In test [2] the target is T1, human creatine transporter (hCRT, SLC6A8). Nature of the test: cryo-EM structure. The test is classed as binding. This is another data set of the same source.

In test [1], `N=C(N)NCCC(=O)O` [RGX202] gave a Kd of 3.39 µM.
`CN(CC(=O)O)C(=N)N` [creatine] registered a Kd in test [2] of 3.2 µM.
